Measured values taken from patent US20230181482A1, “LIPIDS FOR DELIVERY OF NUCLEIC ACID SEGMENTS” (AstraZeneca AB, priority 2021, published 2023).

Columns and labels:
[1] = LNP particle size by dynamic light scattering (Zetasizer Nano ZS); type: physicochemical
Experimental: (§1) A solution of eGFP mRNA (purchased from TriLink Biotechnologies) in citrate buffer was prepared by mixing mRNA dissolved in MilliQ-water, 100 mM citrate buffer (pH 3) and MilliQ-water to give a solution of 50 mM citrate. Lipid solution in ethanol (99.5%) was prepared with four different lipid components: ionizable lipid (see Table 1); cholesterol (Sigma-Aldrich); DSPC (distearoyl phosphatidyl choline, Avanti Polar Lipids Inc); and a polymer-conjugated lipid (see Table 1). The ratio of lipids in all experiments was ionizable lipid/cholesterol/DSPC/polymer-conjugated lipid (50/38.5/10/1.5 mol %). The total concentration of lipids in all experiments was 12.5 mM.
(§2) The mRNA and lipid solutions were mixed in a NanoAssemblr (Precision Nanosystems, Vancouver, BC, Canada) microfluidic mixing system at a mixing ratio of Aq:EtOH=3:1 and a constant flow rate of 12 mL/min. The mRNA in citrate buffer solution was prepared such that, at the time of mixing the ratio between the nitrogen atoms on the ionizable lipid and phosphorus atoms (N/P ratio) on the mRNA chain was either 3:1 or 6:1 (see Table 1).
The first 0.2-0.35 mL and the last 0.05-0.1 mL of the LNP suspension prepared were discarded while the rest of the volume was collected as the sample fraction. The size of the mRNA lipid nanoparticles was determined by dynamic light scattering measurements using a Zetasizer Nano ZS from Malvern Instruments Ltd, giving directly the z-average particle diameter. The number-weighted particle size distributions and averages were calculated using a particle refractive index of 1.45.

[2] = mRNA encapsulation efficiency of LNP formulations (Quant-it Ribogreen assay with Triton-X100); type: physicochemical
Experimental: as §1, §2
The final mRNA concentration and encapsulation efficiency percentage (% EE) was measured by Quant-it Ribogreen Assay Kit (ThermoFischer Scientific Inc.) using Triton-X100 to disrupt the LNPs. The mRNA encapsulation efficiency was determined according to the following equation: […]

Female BALB/c mice = test: eGFP expression in the liver at 24 hours after intravenous administration of LNP formulations to mouse (ELISA); type: in vivo; conditions: LNP N/P 3:1, DMPE-PEG2000
Excerpt: Female BALB/c mice were purchased (SPF (Beijing) Laboratory Animal Technology Co. Ltd.) and on arrival were caged in groups of 4 on corncob bedding, with normal diet and were provided tap drinking water ad libitum that was purified and autoclaved before being offered to the animal. The environment was maintained at a target temperature of […] and relative humidity of 40-80%, with a 12-hour light/dark cycle. Animals were acclimatised to the housing conditions for at least 7 days prior to any experimental procedures and were approximately 6-8 weeks of age at the start of dosing
Animals were assigned to respective groups such that the mean body weights for each treatment groups will be equal. N=4 for each treatment group.
Formulations 1, 3, 4, 5, and 6 from Example 58 were each dosed intravenously: Each mouse was removed from its cage and restrained, and then dosed with a slow IV bolus of a formulation in the lateral tail vein at a dose […] of 0.3 mg/kg.
All animals were sacrificed 24 hours after dosing and flowing blood sampling the liver for the animals dosed by the IV route and the liver and muscle at the dose site for the IM dosed animals were harvested for eGFP analysis by ELISA.
Additional LNP formulations were prepared according to the procedures described in Example 46. These formulations were tested using the same protocol as described herein. The results of eGFP expression in the liver at 24 hours after intravenous administration of the formulations were summarized in Tables 3, 4, 5 and 6 below.

[3] = Table 1, number-average particle diameter, N/P ratio 3:1, DMPE-PEG2000
[4] = Table 1, z-average particle diameter, N/P ratio 3:1, DMPE-PEG2000
[5] = Table 1, LNP with eGFP mRNA, N/P ratio 3:1, DMPE-PEG2000
[6] = Table 3, N/P ratio 3:1, DMPE-PEG2000
[7] = Table 4, N/P ratio 3:1, DMPE-PEG2000
[8] = Table 1, number-average particle diameter, N/P ratio 6:1, DMG-PEG2000
[9] = Table 1, z-average particle diameter, N/P ratio 6:1, DMG-PEG2000
[10] = Table 1, LNP with eGFP mRNA, N/P ratio 6:1, DMG-PEG2000

Structure (SMILES) | <d>N (nm) [1, 6] | <d>Z (nm) [1, 6] | % EE [2, 6] | Liver eGFP protein (ng/g tissue) (Female BALB/c mice; Table 3, 0.3 mg/kg) | <d>N (nm) [1, 7] | <d>Z (nm) [1, 7] | % EE [2, 7] | Liver eGFP protein (ng/g tissue) (Female BALB/c mice; Table 4, 0.3 mg/kg) | also measured
CCCCCC(CCCCC)CCOC(=O)CCCCCCCC(CCCCCCCC(=O)OCCC(CCCCC)CCCCC)NC1CCOCC1 [Compound 2, bis(3-pentyloctyl) 9-[(oxan-4-yl)amino]heptadecanedioate] |  |  |  |  |  |  |  |  | <d>N (nm) [1, 3]: 58 nm; <d>Z (nm) [1, 4]: 73 nm; % EE [2, 5]: 96%
CCCCCC(CCCCC)CCOC(=O)CCCCCCCC(CCCCCCCC(=O)OCCC(CCCCC)CCCCC)NCC1CCOC1 (stereo not drawn) [Compound 3, bis(3-pentyloctyl) 9-(((tetrahydrofuran-3-yl)methyl)amino)heptadecanedioate] |  |  |  |  |  |  |  |  | <d>N (nm) [1, 3]: 58 nm; <d>Z (nm) [1, 4]: 79 nm; % EE [2, 5]: 99%
CCCCCC(CCCCC)CCOC(=O)CCCCCCCC(CCCCCCCC(=O)OCCC(CCCCC)CCCCC)NCC1CCOCC1 [Compound 4, bis(3-pentyloctyl) 9-(((tetrahydro-2H-pyran-4-yl)methyl)amino)heptadecanedioate] |  |  |  |  |  |  |  |  | <d>N (nm) [1, 3]: 62 nm; <d>Z (nm) [1, 4]: 81 nm; % EE [2, 5]: 96%
CCCCCC(CCCCC)CCOC(=O)CCCCCCCC(CCCCCCCC(=O)OCCC(CCCCC)CCCCC)NCC1COC1 [Compound 5, bis(3-pentyloctyl) 9-((oxetan-3-ylmethyl)amino)heptadecanedioate] |  |  |  |  |  |  |  |  | <d>N (nm) [1, 3]: 54 nm; <d>Z (nm) [1, 4]: 70 nm; % EE [2, 5]: 99%
CCCCCC(CCCCC)CCOC(=O)CCCCCCCC(CCCCCCCC(=O)OCCC(CCCCC)CCCCC)NCC1CCCCO1 (stereo not drawn) [Compound 6, bis(3-pentyloctyl) 9-(((tetrahydro-2H-pyran-2-yl)methyl)amino)heptadecanedioate] | 59 nm | 77 nm | 87% | 3621.3 ng/g tissue |  |  |  |  | 
CCCCCC(CCCCC)CCOC(=O)CCCCCCCC(CCCCCCCC(=O)OCCC(CCCCC)CCCCC)NCCC1CCOCC1 [Compound 7, bis(3-pentyloctyl) 9-((2-(tetrahydro-2H-pyran-4-yl)ethyl)amino)heptadecanedioate] | 54 nm | 77 nm | 94% | 6526.4 ng/g tissue |  |  |  |  | 
CCCCCC(CCCCC)CCOC(=O)CCCCCCCC(CCCCCCCC(=O)OCCC(CCCCC)CCCCC)NCC1CCCO1 (stereo not drawn) [Compound 8, bis(3-pentyloctyl) 9-(((tetrahydrofuran-2-yl)methyl)amino)heptadecanedioate] | 61 nm | 76 nm | 95% | 6124.2 ng/g tissue |  |  |  |  | 
CCCCCC(CCCCC)CCOC(=O)CCCCCCCC(CCCCCCCC(=O)OCCC(CCCCC)CCCCC)NCC1COCCO1 (stereo not drawn) [Compound 9, bis(3-pentyloctyl) 9-(((1,4-dioxan-2-yl)methyl)amino)heptadecanedioate] | 61 nm | 81 nm | 93% | 3160.9 ng/g tissue |  |  |  |  | 
CCCCCC(CCCCC)CCOC(=O)CCCCCC(CCCCCC(=O)OCCC(CCCCC)CCCCC)NC1CC2(COC2)C1 [Compound 13, bis(3-pentyloctyl) 7-((2-oxaspiro[3.3]heptan-6-yl)amino)tridecanedioate] | 49 nm | 66 nm | 93% | 8798.8 ng/g tissue |  |  |  |  | 
CCCCCC(CCCCC)CCOC(=O)CCCCCCCCC(CCCCCCCCC(=O)OCCC(CCCCC)CCCCC)NC1CC2(COC2)C1 [Compound 14, bis(3-pentyloctyl) 10-((2-oxaspiro[3.3]heptan-6-yl)amino)nonadecanedioate] | 61 nm | 77 nm | 95% | 8056.3 ng/g tissue |  |  |  |  | 
CCCCCC(CCCCC)CCOC(=O)CCCCCCCCC(CCCCCCCCC(=O)OCCC(CCCCC)CCCCC)NC1CCOCC1 [Compound 15, bis(3-pentyloctyl) 10-((tetrahydro-2H-pyran-4-yl)amino)nonadecanedioate] |  |  |  |  | 72 nm | 89 nm | 97% | 829.4 ng/g tissue | 
CCCCCC(CCCCC)CCOC(=O)CCCCCCCCC(CCCCCCCCC(=O)OCCC(CCCCC)CCCCC)NCC1CCCCO1 (stereo not drawn) [Compound 16, bis(3-pentyloctyl) 10-(((tetrahydro-2H-pyran-2-yl)methyl)amino)nonadecanedioate] |  |  |  |  | 61 nm | 78 nm | 91% | 1393.4 ng/g tissue | 
CCCCCC(CCCCC)CCOC(=O)CCCCCCCCC(CCCCCCCCC(=O)OCCC(CCCCC)CCCCC)NCC1CCOCC1 [Compound 17, bis(3-pentyloctyl) 10-(((tetrahydro-2H-pyran-4-yl)methyl)amino)nonadecanedioate] |  |  |  |  | 77 nm | 96 nm | 93% | 6831.3 ng/g tissue | 
CCCCCC(CCCCC)CCOC(=O)CCCCCCCCC(CCCCCCCCC(=O)OCCC(CCCCC)CCCCC)NCC1COC1 [Compound 18, bis(3-pentyloctyl) 10-((oxetan-3-ylmethyl)amino)nonadecanedioate] |  |  |  |  | 67 nm | 86 nm | 97% | 6817.5 ng/g tissue | 
CCCCCCCCCOC(=O)CCCCCC(CCCCCC(=O)OC(CCCCCCCC)CCCCCCCC)NC1CC2(COC2)C1 (stereo not drawn) [Compound 19, 1-(heptadecan-9-yl) 13-nonyl 7-((2-oxaspiro[3.3]heptan-6-yl)amino)tridecanedioate] |  |  |  |  | 57 nm | 75 nm | 92% | 9938.1 ng/g tissue | 
CCCCCCCCCOC(=O)CCCCCC(CCCCCC(=O)OC(CCCCCCCC)CCCCCCCC)NCC1COC1 (stereo not drawn) [Compound 20, 1-(heptadecan-9-yl) 13-nonyl 7-((oxetan-3-ylmethyl)amino)tridecanedioate] |  |  |  |  | 53 nm | 67 nm | 97% | 9757.7 ng/g tissue | 
CCCCCCCCCOC(=O)CCCCCCCN(CCO)CCCCCCCC(=O)OC(CCCCCCCC)CCCCCCCC [MOD5, heptadecan-9-yl 8-((2-hydroxyethyl)(8-(nonyloxy)-8-oxooctyl)amino)octanoate, reference compound] |  |  |  |  |  |  |  |  | <d>N (nm) [1, 8]: 47 nm; <d>Z (nm) [1, 9]: 66 nm; % EE [2, 10]: 98%
CCCCCCCCCCCOC(=O)CCCCCN(CCO)CCCCCCCC(=O)OC(CCCCCCCC)CCCCCCCC [MOD8, heptadecan-9-yl 8-((2-hydroxyethyl)(6-oxo-6-(undecyloxy)hexyl)amino)octanoate, reference compound] |  |  |  |  |  |  |  |  | <d>N (nm) [1, 8]: 49 nm; <d>Z (nm) [1, 9]: 73 nm; % EE [2, 10]: 98%
